Experiments:
Assay type in all cases: functional, cell-based
A549 = assay: Cytotoxicity against human A549 cells by MTT assay
HL-60 = assay: Cytotoxicity against human HL60 cells by MTT assay
THP-1 = assay: Cytotoxicity against human THP1 cells by MTT assay
A-375 = assay: Cytotoxicity against human A375 cells by MTT assay

SMILES | IC50 (A549) [µM] | IC50 (HL-60) [µM] | IC50 (THP-1) [µM] | IC50 (A-375) [µM]
COc1cc([C@@H]2c3cc4c(cc3[C@@H](O[C@@H]3O[C@@H]5CO[C@@H](C)O[C@H]5[C@H](O)[C@H]3O)[C@H]3COC(=O)[C@H]23)OCO4)cc(OC)c1O [ETOPOSIDE] | 9.51 | 1.83 | 2.16 | 3.92
CC1=CC(=O)[C@]23O[C@](C)(C=C2C1=O)CC[C@H]1[C@@H](C[C@H]3C)C1(C)C [MULTIFIDONE] | 127 | 121 | 45.6 | 159
